Assay results published in patent US7659277B2, “Ubiquitin ligase inhibitors and methods related thereto” (Proteologies, Ltd., priority 2003, dated 2010).

How the values were obtained:
Assay type in all cases: biochemical
E2 protein = conditions: % activity at 1 μM compound; control is related to 100% activity; HTS protocol
POSH = target: T1, POSH (Homo sapiens, UniProt Q7Z6J0); experiment: Selectivity (% A in 1 μM), ubiquitin ligase activity of POSH; conditions: % activity at 1 μM compound; control is related to 100% activity; HTS protocol; read-out: Selectivity (% A* in 1 μM) POSH
T1 construct: GST-POSH lot NB81/p.118 3.6 mg/ml; fused on or other part: GST tag, used for detection with anti-GST XL665
T1 sequence (Q7Z6J0 1-269 limits assumed): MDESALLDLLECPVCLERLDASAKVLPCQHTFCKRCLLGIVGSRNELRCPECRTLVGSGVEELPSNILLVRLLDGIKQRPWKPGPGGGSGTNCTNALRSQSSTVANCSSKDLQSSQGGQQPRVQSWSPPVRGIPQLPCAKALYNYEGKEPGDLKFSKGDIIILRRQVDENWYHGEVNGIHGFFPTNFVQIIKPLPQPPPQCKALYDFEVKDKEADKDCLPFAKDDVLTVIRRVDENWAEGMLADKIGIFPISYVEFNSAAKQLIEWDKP
Procedure: Experimental Protocols: 1. HTS Screening Assay Procedure • Microplates 10109D to 10114D compounds at 1 mM. • (Controls in column 1). • All compounds were perchase from ChemBridge corporation: ChemBridge corporation 16981 Via Tazon, Suite G San Diego, Calif. 92127 a. Microplates Labeling • Put labels to 6 PS U-bottom clear microplate. • Put labels to 18 black microplates (triplicats). b. Microplates Preparation • Put 100 μl GST-POSH at 33 nM in wells of the clear PS U-bottom microplates (exept wells A1-D1). • Negative control: place 100 μl dH2O in wells A1-D1. • (Positive control: place 100 μl GST-POSH at 33 nM in wells E1-H1). • Put 8 μl enzymes solution ×4 to black microplates (column 1 to 11). c. Incubation of E3 with Compounds • Transfer 5 μl of compounds (at 1 mM) to the microplates containing 100 μl GST-POSH. • Add 5 μl of DMSO to controls column 1. • Incubation 30 minutes at RT. d. […] 2. […] Microplates Labeling • Put labels to 4 clear PP clear microplate (18.2 μM, 9.1 uM, 1.82 uM, 910 nM,). • Put labels to 5 clear PS U-bottom clear microplate 4.44 μM, 909, 444, 91 and 44 nM) • Put labels to 15 black microplates (triplicates). f. Original Microplate Dilutions • Put DMSO 40 μl to (18.2 μM, 1.82 uM plates) and 20 ul to (9.1 uM, 910 nM plates. • Mix by pipetation the original microplate (3× up and down 45 μl). • Transfer 10 μl of compounds from the original microplate (at 91 μM) to the next microplate (=18.2 μM) on splitting apparatus. • Mix by pipetation the 18.2 uM microplate (3× up and down 45 μl). • Transfer 20 μl of compounds from the 18.2 uM microplate to the next microplate (=9.1 μM) on splitting apparatus. • Mix by pipetation the 9.1 uM microplate (3× up and down 45 μl). • Transfer 10 μl of compounds from the 9.1 uM microplate to the next microplate (=1.82 μM) on splitting apparatus. • Mix by pipetation the 1.82 uM microplate (3× up and down 45 μl). • Transfer 20 μl of compounds from the 1.82 uM microplate to the next microplate (=910 nM) on splitting apparatus • Mix by pipetation. g. Microplates Preparation • Put 123 μl GST-POSH at 33 nM in wells of the 5 clear PS U-bottom clear microplates. • Positive control: place 123 μl GST-POSH at 33 nM in well A12-h12 13 μl DMSO. • Negative control: place 123 μl dH2O in well B1 and 13 μl DMSO. • Put 8 μl enzymes solution ×4 to 15 black microplates. • Controls: put 8 μl enzymes solution ×4 to wells A1 to F1. h. Incubation of POSH with Compounds • Take 7 μl of compounds at original plate (91 μM) and put into the 4.44 μM labeled microplate containing 123 μl GST-POSH, on splitting apparatus. • Mix by pipetation (3× up and down 115 μl), note time. • Take 7 μl of compounds at 18.2 μM and put into the 910 nM labeled microplate containing 123 μl GST-POSH, on splitting apparatus. • Mix by pipetation (3× up and down 115 μl), note time. • Take 7 μl of compounds at 9.1 μM and put into the 444 nM labeled microplate containing 123 μl GST-POSH, on splitting apparatus. • Mix by pipetation (3× up and down 115 μl), note time. • Take 7 μl of compounds at […] and put into the 91 nM labeled microplate containing 123 μl GST-POSH, on splitting apparatus. • Mix by pipetation (3× up and down 115 μl), note time. • Take 7 μl of compounds at 91.0 nM and put into the 44 nM labeled microplate containing 123 μl GST-POSH, on splitting apparatus. • Mix by pipetation (3× up and down 115 μl), note time. • Incubation 30 minutes at RT. i.

c-cbl = c-cbl (Homo sapiens, UniProt P22681); experiment: Selectivity (% A in 1 μM), ubiquitin ligase activity of c-cbl; conditions: % activity at 1 μM compound; control is related to 100% activity; HTS protocol

Row | Structure (SMILES) | Selectivity (% A* in 1 μM) E2 (E2 protein) | remaining activity at 1 µM (POSH) | remaining activity at 1 µM (c-cbl)
1 | CC(=C\c1ccccc1)/C=C1/SC(=N)NC1=O [Compound 31] | 104% | 105% | 108%
2 | Oc1c(Br)cc(Br)cc1/C=N/c1nc2ccccc2s1 [Compound 62] | 94% | 37% | 134%
3 | COc1ccc(/C=C2\C(=O)NC(=S)N(c3ccccc3)C2=O)cc1 [Compound 11] |  | 21% | 
4 | C=CCN1C(=O)NC(=O)/C(=C/c2ccc(F)cc2)C1=O [Compound 12] |  | 54% | 
5 | O=C1C=CC(=O)N1c1cc(Cl)cc(Cl)c1 [Compound 23] | 112% | 9% | 102%
6 | O=C1C(=Cc2ccco2)C(=O)N(c2ccccc2)C(=S)N1c1ccccc1 [Compound 13] |  | 7% | 
7 | Cc1ccc2nc(-c3ccc(/N=C/c4ccc([N+](=O)[O-])s4)cc3)sc2c1 [Compound 72] | 77% | 39% | 95%
8 | O=C1NC(=O)/C(=C\c2ccc(-c3ccc(F)cc3)o2)S1 [Compound 108] |  | 42% | 
9 | COC(=O)c1ccc(N2C(=O)c3cccc(N)c3C2=O)cc1 [Compound 21] | 75% | 83% | 91%
10 | O=[N+]([O-])c1ccc(Cl)cc1CN1CCN(CCO)CC1 [Compound 82] | 47% | 60% | 77%
11 | O=c1nc(C(F)(F)F)cc(/C=C/c2ccc(-c3ccc(Br)cc3)o2)[nH]1 [Compound 39] | 98% | 29% | 132%
12 | O=[N+]([O-])c1ccc(-c2ccc(/N=C/c3c(O)ccc4ccccc34)cc2)cc1 [Compound 60] | 53% | 22% | 110%
13 | CC(C)Oc1ccc(/C=C2/SC(=S)NC2=O)cc1 [Compound 26] | 61% | 69% | 85%
14 | O=C1/C(=C\c2ccc(Cl)c([N+](=O)[O-])c2)Sc2ccccc21 [Compound 50] | 103% | 39% | 155%
15 | COc1ccc(/C=C/C(=O)C2C(=O)CCC2=O)cc1OC [Compound 113] | 66% | 74% | 93%
16 | COc1ccc(CC(C)NCc2ccccc2Cl)cc1 (stereo not drawn) [Compound 107] |  | 68% | 
17 | COc1ccccc1/C=C1\N=C(c2ccccc2Cl)OC1=O [Compound 49] | 43% | 77% | 127%
18 | O=C1N=C(c2ccccc2)S/C1=C/c1ccc(-c2cccc([N+](=O)[O-])c2)o1 [Compound 36] | 82% | 6% | 86%
19 | O=C1\C(=C/C=C/C=C/Nc2ccccc2)SC(=S)N1c1ccccc1 [Compound 24] | 87% | 7% | 90%
20 | Cc1ccc(/C=N/c2ccc(Cl)cc2)o1 [Compound 74] | 96% | 17% | 110%

Row | Structure (SMILES) | Selectivity (% A* in 1 μM) E2 (E2 protein) | remaining activity at 1 µM (POSH) | remaining activity at 1 µM (c-cbl)
21 | O=C(C(Cl)Cl)N1CCN(c2ccc([N+](=O)[O-])cc2)CC1 [Compound 79] | 55% | 120% | 89%
22 | COc1cc(N/C=C2/C(=O)NC(=S)N(c3ccc(F)cc3)C2=O)cc(OC)c1 [Compound 17] |  | 71% | 
23 | Oc1ccc2ccccc2c1/C=N/c1ncc(Br)cc1Br [Compound 66] | 117% | 53% | 107%
24 | Oc1c(Br)cc(Cl)cc1/C=N/c1ccccn1 [Compound 64] | 117% | 63% | 118%
25 | Cc1cc(C)c(O)c(/N=C/c2c(O)ccc3ccccc23)c1 [Compound 65] | 65% | 8% | 101%
26 | CCOC(=O)c1c(/N=C/c2cc(Br)ccc2O)sc2c1CCCC2 [Compound 68] | 57% | 72% | 91%
27 | CC(=O)Nc1ccc(-c2cc3ccccn3c2)cc1 [Compound 78] | 43% | 22% | 151%
28 | COc1cc(N/C=C2/C(=O)NC(=S)N(c3cccc(C)c3)C2=O)cc(OC)c1 [Compound 16] |  | 51% | 
29 | Oc1c(Br)cc(Br)cc1/C=N/c1cccc2nsnc12 [Compound 112] | 84% | 27% | 117%
30 | COc1ccccc1N1C(=O)NC(=O)/C(=C\C=C\c2ccccc2)C1=O [Compound 10] |  | 15% | 
31 | COc1ccc(CNc2cccc(N(C)C)c2)cc1 [Compound 106] | 88% | 27% | 112%
32 | O=c1oc2cc(O)ccc2cc1-c1csc(-c2ccc(Cl)cc2)n1 [Compound 40] | 117% | 24% | 95%
33 | Cc1cc(I)ccc1NCn1nnc2ccccc21 [Compound 105] | 93% | 28% | 117%
34 | O=C1NC(=O)N(c2ccc(Br)cc2)C(=O)/C1=C/c1ccc(O)cc1 [Compound 5] |  | 13% | 
35 | COc1ccc(N2C(=O)NC(=O)/C(=C\c3ccc(Cl)cc3)C2=O)cc1 [Compound 7] |  | 108% | 
36 | Oc1c(Br)cc(Br)cc1/C=N/c1ccc(Br)cn1 [Compound 61] | 52% | 35% | 133%
37 | O=c1/c(=C/c2cccc([N+](=O)[O-])c2O)sc2nc3ccccc3n12 [Compound 51] | 113% | 51% | 104%
38 | O=C1NC(=S)N(c2ccccc2)C(=O)/C1=C\c1c(Cl)cccc1Cl [Compound 6] |  | 14% | 
39 | COc1cc(C=C2C(=O)N(C)C(=S)N(C)C2=O)ccc1O [Compound 9] |  | 91% | 
